Source: patent US20150352134A1, “COMPOSITION FOR TOPICAL SKIN APPLICATION CONTAINING GINSENOSIDE F2 DERIVED FROM HYDROPONIC GINSENG” (AMOREPACIFIC CORPORATION, priority 2012, published 2015)

Key:
[1] = tested on: procollagen type (I) in fibroblasts; test: Collagen biosynthesis in fibroblasts (procollagen type (I) ELISA); assay type: cell-based; settings: 10 ng/ml, 24 hours; non-treated group = 100%
Protocol: The ginsenoside F2 of the present invention is compared with TGF-β in regards to the effect of promoting biosynthesis of collagen. Firstly, fibroblasts are seeded in 24 wells at a rate of 10^5 per well and cultured until the growth reaches 90%. The fibroblasts are cultured in a non-serum culture medium for 24 hours, treated with each 10 ng/ml of ginsenoside F2 or TGF-β dissolved in the non-serum culture medium, and then cultured in a CO2 incubator for 24 hours. The supernatant liquid is collected to determine an increase or decrease of procollagen using a procollagen type (I) ELISA kit. The collagen synthesis ability is denoted with respect to 100% for the non-treated group.

[2] = tested on: Keratinocytes isolated from the human epidermal tissue; test: Inhibition of reactive oxygen species formation after UVB (DCF-DA fluorescence); assay type: cell-based; settings: 1% ginsenoside F2; for ratio to the ROS of the control group, elapsed time after exposure to 30 mJ/cm^2 of UVB 0 hr: 0 hr after 30 mJ/cm^2 UVB; for ratio to the ROS of the control group, elapsed time after exposure to 30 mJ/cm^2 of UVB 2 hrs: 2 hrs after 30 mJ/cm^2 UVB; for ratio to the ROS of the control group, elapsed time after exposure to 30 mJ/cm^2 of UVB 3 hrs: 3 hrs after 30 mJ/cm^2 UVB
Protocol: 5×10^4 Keratinocytes isolated from the human epidermal tissue are put in each well of a 24-well plate and immobilized for 24 hours. After 16 hours, the keratinocytes are treated with 1% ginsenoside F2. For a comparison, the control group is not treated with ginsenoside F2. Each well is removed of the culture medium after 2 hours and then fed with 100 μl of a phosphate-buffered saline (PBS) solution. The keratinocytes are exposed to 30 mJ/cm^2 of ultraviolet radiation under an ultraviolet B (UVB) lamp (Model: F15T8, UV B 15 W, Sankyo Denki Co., Ltd., Japan). Each well is removed of the PBS solution and then supplied with 200 μl of the keratinocyte culture medium. The well is treated with ginsenoside F2 again. Then, the quantity of the reactive oxygen species (ROS) increased by the UV stimulation is determined at defined time intervals. The quantity of the reactive oxygen species (ROS) is determined according to the method that includes measuring the fluorescence of dichlorofluorescin diacetate (DCF-DA) (Tan et al., 1998, J. Cell Biol. Vol. 141, pp 1423-1432).

Melanin-a cells = test: Melanogenesis promotion in Melanin-a cells; assay type: cell-based; settings: 3 days, DMSO (0.1%) = 100
Protocol: Melanin-a cells are injected in a 24-well microtiter plate at a rate of 50,000 cells per well with an RPMI medium containing 5% fetal bovine serum, 100 IU penicillin G, and 0.2 μM TPA. Next day, the cells are treated with ginsenoside F2 as a test substance independently at the final concentration of 10 ppm or 50 ppm. The negative control is treated with 0.1% DMSO, and the positive control is treated with 100 μM IBMX. Then, the cells are cultured at 37° C. for 3 days. The wells of the plate are washed with PBS, and 100 μl of 1N NaOH is added to each well to dissolve melanin in the cells. The absorbance of the dissolved melanin is measured at 405 nm with a microplate reader. The effect of the ginsenoside F2 to promote melanogenesis is evaluated in comparison with that of the control groups.

[3] = tested on: DP6 (rat immortalized dermal papilla cell) line; test: Proliferation of hair follicle dermal papilla cells (WST-1); assay type: cell-based; settings: 24 hours, not treated control = 100
From the text: The keratin protein constituting hair is produced by the keratinocytes in the hair roots, and the keratinocytes are differentiated from the hair papilla cells. To evaluate the composition of the present invention in regards to the effect to enhance the activity of hair papilla cells, the present invention uses DP6 (rat immortalized dermal papilla cell) line (Wendy Filsell, Journal of Cell Science 107, 1761-1772 (1994)). The hair papilla cells used in the present invention are a cell line isolated from the hair roots of male PVG rats by the microdissection method and cultured with DMEM (Dulbecco's modified eagle's medium, Gibco BRL, Gaithersburg, Md., U.S.A.) containing 10% FBS (Fetal Bovine Serum) in an incubator under the conditions of 5% CO2 and 37° C. for 24 hours. DP6 is put in the 96-well plate, cultured in an incubator at 37° C. for 24 hours and treated with the ginsenoside F2 of the present invention independently at a concentration of 5 ppm, 10 ppm, or 20 ppm. 24 hours after the treatment, the cell proliferation ability is measured using a WST-1 kit (Roche).

collagenase (MMP-1) = test: Collagenase (MMP-1) expression in human fibroblasts (ELISA); assay type: cell-based; settings: 10 μg/mL for 24 hours; not treated control = 100
Protocol: The ginsenoside F2 of the present invention is measured in regards to the inhibitory effect on the generation of collagenase in comparison with retinoic acid. […] The human fibroblasts are treated with ginsenoside F2 or retinoic acid at a concentration of 10 μg/mL for 24 hours. Then, the cell culture medium is collected. The production yield of collagenase in the collected cell culture medium is measured using a collagenase measurement instrument commercially available (Catalog #. RPN 2610, USA Amersham Pharma Inc.). Firstly, the collected cell culture medium is put in each well of a 96-well plate uniformly coated with the primary collagenase antibodies and then subjected to antigen-antibody reactions in a thermostat container for 3 hours. After 3 hours, the secondary collagenase antibodies coupled to the chromophore groups are put in each well of the 96-well plate and then allowed to react for more 15 minutes. […] The intensity of yellowness in the reaction mixture is varied depending on the progress of the reaction. The absorbance of the yellow-colored 96-well plate is measured at 405 nm with a spectrophotometer, and the expression level of collagenase is calculated according to the following mathematical formula 2. In this regard, the absorbance of the cell culture medium collected from the group not treated with the composition of the present invention is considered as the absorbance of the control. [formula]

[4] = tested on: potassium ion channels (KATP channels); test: KATP channel opener test: recovery of NIH3T3 proliferation blocked by tolbutamide (WST-1); assay type: cell-based, mouse; settings: 48 hours
From the text: Minoxidil, a treatment for hair loss, is known as a potassium ion channel opener (KATP channel opener) potentially acting on mitochondria and a representative drug used for treatment of androgenic alopecia (hair loss). A testing method used to evaluate the action of minoxidil includes treating with tolbutamide (SIGMA-ALDRICH, T0891) blocking the potassium ion channels (KATP channels) in fibroblasts constituting the corium of scalp to inhibit cell proliferation and then opening the potassium ion channels (KATP channels) to resume the cell proliferation. In order to evaluate the function of the composition of the present invention as a KATP channel opener, the present invention uses a mouse embryonic fibroblast cell line, NIH3T3, as fibroblasts. The cell line is obtained by naturally immortalizing a fibroblast cell line isolated from an NIH Swiss mouse embryo with 3T3 protocol. The cell line is cultured with DMEM (Dulbecco's modified eagle's medium, Gibco BRL, Gaithersburg, Md., U.S.A.) containing 10% FBS (Fetal Bovine Serum) in an incubator under the conditions of 5% CO2 and 37° C. for 24 hours.

tyrosinase = test: Tyrosinase inhibitory effect; assay type: biochemical, mushrooms; settings: 37° C., absorbance 475 nm
Protocol: The tyrosinase as used herein is an enzyme extracted from mushrooms and purchased from Sigma-Aldrich. Firstly, tyrosine as a substrate is dissolved in distilled water to prepare a 0.3 mg/mL solution, which is added dropwise to a test tube at an amount of 1.0 mL each time. To the solution are added 1.0 mL of a potassium phosphate buffer solution (0.1 mol, pH 6.8) and 0.7 mL of distilled water.
0.2 mL of the sample solution is added to the reactant solution and then allowed to have a reaction in a thermostat container at 37° C. for 10 minutes. In this regards, the control is the reactant solution containing 0.2 mL of a solvent alone in place of each sample solution. The positive control uses ascorbic acid. 0.1 mL of a 2500 unit/mL tyrosinase solution is added to the reactant solution, which is then allowed to have a reaction again in a thermostat container at 37° C. for 10 minutes. The test tube filled with the reactant solution is put into an ice water to cause quenching and thus stop the reaction. The absorbance at 475 nm is measured with a photoelectric spectrophotometer. The tyrosinase inhibitory effect is calculated according to the following mathematical formula 3.

[5] = 2.5 ppm after 2.5 mM tolbutamide
[6] = 10 ppm after 2.5 mM tolbutamide

Compound: CC(C)=CCC[C@](C)(O[C@@H]1O[C@H](CO)[C@@H](O)[C@H](O)[C@H]1O)[C@H]1CC[C@]2(C)[C@@H]1[C@H](O)C[C@@H]1[C@@]3(C)CC[C@H](O[C@@H]4O[C@H](CO)[C@@H](O)[C@H](O)[C@H]4O)C(C)(C)[C@@H]3CC[C@]12C [Ginsenoside F2, ginsenoside F2]
- Collagen synthesis ability (%) [1]: 191.6%
- ratio to the ROS of the control group, elapsed time after exposure to 30 mJ/cm^2 of UVB 0 hr [2]: 100
- ratio to the ROS of the control group, elapsed time after exposure to 30 mJ/cm^2 of UVB 2 hrs [2]: 251
- ratio to the ROS of the control group, elapsed time after exposure to 30 mJ/cm^2 of UVB 3 hrs [2]: 286
- Yield of Melanin (%) (Melanin-a cells; 10 ppm): 113%
- Yield of Melanin (%) (Melanin-a cells; 50 ppm): 129%
- Cell proliferation ability (%) ([3]; 5 ppm): 116%
- Cell proliferation ability (%) ([3]; 10 ppm): 122%
- Cell proliferation ability (%) ([3]; 20 ppm): 138%
- Collagenase expression level(%) (collagenase (MMP-1)): 73%
- Cell proliferation ability (%) [4, 5]: 115%
- Cell proliferation ability (%) ([4]; 5 ppm after 2.5 mM tolbutamide): 120%
- Cell proliferation ability (%) [4, 6]: 131%
- Tyrosinase inhibition rate (%) (tyrosinase): 69%

Compound: CC(C)=CCC[C@](C)(O[C@@H]1O[C@H](CO[C@@H]2O[C@H](CO)[C@@H](O)[C@H](O)[C@H]2O)[C@@H](O)[C@H](O)[C@H]1O)[C@H]1CC[C@]2(C)[C@@H]1[C@H](O)C[C@@H]1[C@@]3(C)CC[C@H](O[C@@H]4O[C@H](CO)[C@@H](O)[C@H](O)[C@H]4O[C@@H]4O[C@H](CO)[C@@H](O)[C@H](O)[C@H]4O)C(C)(C)[C@@H]3CC[C@]12C [Ginsenoside Rb1]
- Collagen synthesis ability (%) [1]: 188.3%
- ratio to the ROS of the control group, elapsed time after exposure to 30 mJ/cm^2 of UVB 0 hr [2]: 100
- ratio to the ROS of the control group, elapsed time after exposure to 30 mJ/cm^2 of UVB 2 hrs [2]: 302
- ratio to the ROS of the control group, elapsed time after exposure to 30 mJ/cm^2 of UVB 3 hrs [2]: 354
- Yield of Melanin (%) (Melanin-a cells; 10 ppm): 112%
- Yield of Melanin (%) (Melanin-a cells; 50 ppm): 120%
- Cell proliferation ability (%) ([3]; 5 ppm): 114%
- Cell proliferation ability (%) ([3]; 10 ppm): 118%
- Cell proliferation ability (%) ([3]; 20 ppm): 127%
- Collagenase expression level(%) (collagenase (MMP-1)): 74%
- Cell proliferation ability (%) [4, 5]: 113%
- Cell proliferation ability (%) ([4]; 5 ppm after 2.5 mM tolbutamide): 117%
- Cell proliferation ability (%) [4, 6]: 124%
- Tyrosinase inhibition rate (%) (tyrosinase): 60%
